Results taken from PMC4884984, “Identification of approved and investigational drugs that inhibit hypoxia-inducible factor-1 signaling” (Oncotarget, 2016).
Like-named read-outs stand apart in the source and are kept apart here.

Tests used:
Type in all cases: cell-based, human
[1] = test system: HIF-1α–NanoLuc HCT116 cells; assay: Viability (Luc): CellTiter-Glo counter screen in HIF-1α–NanoLuc cells; settings: for Viability (Luc) confirmatory IC50: Table S7, 1% O2, 18 h
[2] = test system: HIF-1α–NanoLuc; assay: HIF-1α–NanoLuc reporter gene assay (qHTS primary and confirmatory screens)
[3] = test system: HRE–bla ME-180 cells; assay: Viability (BLA): CellTiter-Glo counter screen in HRE–bla cells; settings: for Viability (BLA) confirmatory IC50: Table S7, 1% O2, 18 h; for IC50: Table S7, confirmatory screen, 1% O2, 18 h
Method: (§1) Cell culture of HRE–bla ME-180 cells (Cat. No. K1644, Life Technologies) and HRE–bla assay were conducted according to a reported protocol [6]. […] The fluorescence signals (460/25 nm and 530/20 nm) of CCF4 and luminescence signals of CellTiter-Glo were acquired on an Envision and a ViewLux plate readers (Perkin Elmer), respectively.

[4] = test system: hypoxia response element-beta-lactamase (HRE–bla); assay: HRE-bla reporter gene assay in ME-180 cells; settings: Table S7, confirmatory screen; for Emax: read-out: HRE–bla confirmatory Efficacy; for IC50: read-out: HRE–bla confirmatory IC50
Method: as §1

[5] = Homo sapiens, Table S1, primary screen, hypoxia 1% O2, 18 h, read-out: IC50 (primary screen, HIF-1α–NanoLuc assay)
[6] = Homo sapiens, Table S1, primary screen, read-out: Efficacy (primary screen, HIF-1α–NanoLuc assay)
[7] = Homo sapiens, Table S2, primary screen, read-out: Pathway inhibitors (primary screen) HIF-1α–NanoLuc Activity Efficacy
[8] = Homo sapiens, Table S2, validation, read-out: Pathway inhibitors (validation) HIF-1α–NanoLuc Activity Efficacy
[9] = Homo sapiens, Table S2, validation, read-out: Pathway inhibitors (validation) HIF-1α–NanoLuc Activity IC50
[10] = Homo sapiens, Table S7, confirmatory screen, read-out: HIF-1α–NanoLuc confirmatory Efficacy
[11] = Homo sapiens, Table S7, primary screen, read-out: HIF-1α–NanoLuc primary Efficacy
[12] = Homo sapiens, Table S7, confirmatory screen, read-out: HIF-1α–NanoLuc confirmatory IC50
[13] = Homo sapiens, Table S7, primary screen, read-out: HIF-1α–NanoLuc primary IC50

Row | SMILES | Viability (Luc) confirmatory IC50 [1] | Viability (BLA) confirmatory IC50 [3] | Emax ([4]; Homo sapiens, ME-180) | IC50 ([4]; Homo sapiens, ME-180) | Emax [2, 6] | Emax [2, 8] | IC50 [2, 9] | Emax [2, 10] | Emax [2, 11] | IC50 [2, 12] | IC50 [2, 13] | IC50 ([3]; Homo sapiens, ME-180) | further results
1 | CCOC(=O)C1(c2ccccc2)CCN(CCC(C#N)(c2ccccc2)c2ccccc2)CC1 [Diphenoxylate] | Inactive | Inactive | 60 ± 4% | 7.8 ± 0.53 µM |  |  |  |  |  |  |  |  | Emax ([2]; Homo sapiens, read-out: HIF-1α–NanoLuc confirmatory Efficacy): 104 ± 12%; IC50 ([2]; Homo sapiens, read-out: HIF-1α–NanoLuc confirmatory IC50): 13.7 ± 0.93 µM; Emax ([2]; Homo sapiens, read-out: HIF-1α–NanoLuc primary Efficacy): 82%; IC50 ([2]; Homo sapiens, read-out: HIF-1α–NanoLuc primary IC50): 16.8 µM
2 | C#Cc1cccc(Nc2ncnc3cc(OCCOC)c(OCCOC)cc23)c1 [Erlotinib] | Inactive | Inactive | 59 ± 15% | 7.95 ± 3.47 µM | 33% | 35 ± 6% | 6.64 ± 2.42 µM | 35 ± 6% | 33% |  |  |  | IC50 [2, 5]: 2.66 µM; Emax [2, 7]: 33%
3 | CCOc1ccc(Cc2nccc3cc(OCC)c(OCC)cc23)cc1OCC [Ethaverine] | Inactive | Inactive |  |  |  |  |  | 96 ± 2% | 67% | 9.39 ± 1.08 µM | 6.68 µM |  | HRE–bla confirmatory IC50 [4]: Inactive
4 | c1ccc(CCNc2nc(-c3ccccc3)cs2)cc1 [Fanetizole] | Inactive | Inactive |  |  |  |  |  | 28 ± 5% | 123% | 16.4 ± 3.97 µM | 26.6 µM |  | HRE–bla confirmatory IC50 [4]: Inactive
5 | COc1cc2ncnc(Nc3ccc(F)c(Cl)c3)c2cc1OCCCN1CCOCC1 [Gefitinib] | Inactive | Inactive | 45 ± 14% |  | 86% |  |  | 31 ± 3% | 86% |  |  |  | 
6 | CS(=O)(=O)CCNCc1ccc(-c2ccc3ncnc(Nc4ccc(OCc5cccc(F)c5)c(Cl)c4)c3c2)o1 [Lapatinib] | Inactive |  | 78 ± 6% | 11.4 ± 0.75 µM |  | 50 ± 6% | 20.2 ± 1.31 µM | 50 ± 6% | 56% |  | 33.5 µM | 20.4 ± 1.33 µM | 
7 | CCCCCCCCCCCCCC[N+](C)(C)C.[Br-] [MitMAB] | Inactive |  |  |  |  |  |  |  |  |  |  |  | HIF-1α–NanoLuc confirmatory Efficacy ([2]; Table S7, confirmatory screen): 99 ± 9%; IC50 ([2]; Table S7, confirmatory screen, read-out: HIF-1α–NanoLuc confirmatory IC50): 15.2 ± 7.16 µM; HIF-1α–NanoLuc primary Efficacy ([2]; Table S7, primary screen): 129%; IC50 ([2]; Table S7, primary screen, read-out: HIF-1α–NanoLuc primary IC50): 2.11 µM; IC50 [3]: 18.2 ± 2.51 µM; HRE–bla confirmatory Efficacy [4]: 100 ± 5%; IC50 [4]: 5.73 ± 1.88 µM
8 | CC(=O)Oc1ccccc1C(=O)Nc1ncc([N+](=O)[O-])s1 [Nitazoxanide] |  |  | 88 ± 1% | 3 ± 0.34 µM |  |  |  | 101 ± 14% | 150% | 17.3 ± 1.17 µM | 9.44 µM | 3 ± 0.34 µM | IC50 ([1]; Homo sapiens, HCT-116, Table S7, confirmatory screen, 1% O2, 18 h): 9.39 ± 1.08 µM
9 | CC(=O)Oc1ccc(C2(c3ccc(OC(C)=O)cc3)C(=O)Nc3ccccc32)cc1 [Oxyphenisatin acetate] | Inactive |  | 92 ± 3% | 0.19 ± 0.01 µM |  |  |  | 55 ± 9% | 84% | 2.47 ± 0.79 µM | 1.33 µM | 0.2 ± 0.01 µM | 
10 | CNC(=O)c1cc(Oc2ccc(NC(=O)Nc3ccc(Cl)c(C(F)(F)F)c3)cc2)ccn1 [Sorafenib] | Inactive | Inactive | 98 ± 7% | 17.6 ± 8.6 µM | 156% | 100 ± 6% | 23.6 ± 2.71 µM | 100 ± 6% | 156% |  |  |  | IC50 [2, 5]: 13.3 µM; Emax [2, 7]: 46%; IC50 ([2]; Homo sapiens, Table S2, primary screen, read-out: Pathway inhibitors (primary screen) HIF-1α–NanoLuc Activity IC50): 1.5 µM
